Results reported in patent US20090088380A1, “GHRH ANALOGS AND THERAPEUTIC USES THEREOF” (priority 2007, published 2009).
Non-standard residues stand in square brackets, D forms with d. Residues, ends and D or L forms follow the SMILES beside them.

What was measured:
[1] = test system: Rat Growth Hormone; test: In vivo GH secretion in adult female Sprague-Dawley rats, single SC or IV injection, RIA
Procedure: In order to assess such use of the GHRH analogs, the following experiments were undertaken. More specially, the goal was to assess the pharmacodynamic and pharmacokinetic profiles and acute toxicity of GHRH analog #5 when administered once by subcutaneous or intravenous injection to female Sprague-Dawley rats followed by a 14-day observation period and the pharmacodynamic profile in a male Beagle dog when the GHRH analog was administered at escalating doses to the same dog by subcutaneous injection with at least 2-day washout period. The above GHRH analog is a variation of a synthetic acetate salt of an amidated synthetic 29-amino acid peptide that corresponds to the amino-terminal segment of the naturally-occurring human growth hormone—releasing hormone (GHRH) with four amino acid substitutions in positions 2, 10, 15, and 22.
Human GHRH analog #5 in 0.9% sodium chloride for injection USP was administered once either by intravenous (IV) or subcutaneous (SC) injection to female rats followed by a 14-day observation period, as shown in Table 2. Prior to administration, all dosing formulations were filtered using a 0.22 μm filter to ensure sterility. The actual amount of GHRH analog #5 administered was calculated and adjusted based on the animal's most recent body weight. Dosing started at approximately the same time each day, commencing at 9:00 am ±30 minutes.
For pharmacodynamic investigations, blood samples (approximately 1.3 ml) were collected from 2 animals per group per time point (maximum 3 time points/animal) via a jugular venipuncture at the following time points: […] All blood samples were collected into potassium EDTA tubes and centrifuged under refrigeration (2 to 8° C., 1500 g for 10 minutes).
Rat Growth Hormone Determination • Plasma GH was determined by Linco Diagnostic Services using their own kit. Linco's Rat Growth Hormone radioimmunoassay kit (RIA) (RGH-45HK) is intended for the quantitative determination of Rat Growth Hormone in serum, plasma, and tissue culture media. It is a completely homologous assay since the antibody was raised against recombinant Rat Growth Hormone and both the tracer and the standard are prepared with the same recombinant Rat Growth Hormone. The kit includes standards, antibody, tracer, quality controls, precipitating reagents and buffer necessary to complete a RIA. The assay was conducted under the following conditions: overnight; equilibrium incubation at room temperature; sample volume: 100 μl serum, plasma, or cell culture media. The label used was 125I-Rat Growth Hormone (20,000 CPM/tube).

[2] = in vivo; settings: Beagle, dog
Procedure: No mortality, adverse clinical sign, effects on body weight, food consumption, opthalmology, haematology, coagulation, clinical chemistry, urinalysis or organ weights were noted following the dosing or recovery periods. Microscopic findings at the injection sites were noted among treated animals, however, the changes were reversed following the recovery period. A no adverse effect level for this study was determined to be 3 mg/kg.

[3] = test system: malnourished subjects with CKD; test: Phase II CKD: abnormal findings on physical examination; assay type: in vivo, human; settings: safety analysis set
Excerpt: There were no body systems in which there was a trend towards change in physical examination. Any physical examination findings after the screening visit were reported as AEs.

[4] = 0.3 mg/kg BW SC, in ng·min/mL (unit assumed)
[5] = 1.0 mg/kg BW SC, in ng·min/mL (unit assumed)
[6] = 3.0 mg/kg BW IV, in ng·min/mL (unit assumed)
[7] = 3.0 mg/kg BW SC, in ng·min/mL (unit assumed)

SMILES: CC[C@H](C)[C@H](NC(=O)[C@H](C)NC(=O)[C@H](CC(=O)O)NC(=O)[C@@H](C)NC(=O)[C@@H](N)Cc1ccc(O)cc1)C(=O)N[C@@H](Cc1ccccc1)C(=O)N[C@H](C(=O)N[C@@H](CC(N)=O)C(=O)N[C@@H](CO)C(=O)N[C@H](Cc1ccc(O)cc1)C(=O)N[C@@H](CCCNC(=N)N)C(=O)N[C@@H](CCCCN)C(=O)N[C@H](C(=O)N[C@@H](CC(C)C)C(=O)N[C@H](C)C(=O)N[C@@H](CCC(N)=O)C(=O)N[C@@H](CC(C)C)C(=O)N[C@@H](CO)C(=O)N[C@@H](C)C(=O)N[C@@H](CCCNC(=N)N)C(=O)N[C@@H](CCCCN)C(=O)N[C@@H](CCCCN)C(=O)N[C@@H](CC(C)C)C(=O)N[C@@H](CCC(N)=O)C(=O)N[C@@H](CC(=O)O)C(=O)N[C@H](C(=O)N[C@@H](CCSC)C(=O)N[C@@H](CO)C(=O)N[C@@H](CCCNC(=N)N)C(N)=O)[C@@H](C)CC)C(C)C)[C@@H](C)O [GHRH analog #5, [D-Ala^2, D-Tyr^10, D-Ala^15, Lys^22] hGHRH(1-29)-NH2] (H-Y[dA]DAIFTNS[dY]RKVL[dA]QLSARKKLQDIMSR-NH2)
- GH AUC 120 min [1, 4]: 8636
- GH AUC 300 min [1, 4]: 10958
- Plasma Rat Growth Hormone ([1]; 0.3 mg/kg BW SC, −120 min): 20.7 ng/mL
- Plasma Rat Growth Hormone ([1]; 1.00 mg/kg BW SC, 15 min): 270.0 ng/mL
- Plasma Rat Growth Hormone ([1]; 1.00 mg/kg BW SC, 30 min): 155.85 ng/mL
- Plasma Rat Growth Hormone ([1]; 1.00 mg/kg BW SC, 60 min): 24.35 ng/mL
- Plasma Rat Growth Hormone ([1]; 1.00 mg/kg BW SC, 120 min): 15.85 ng/mL
- Plasma Rat Growth Hormone ([1]; 1.00 mg/kg BW SC, 300 min): 28.85 ng/mL
- GH AUC 120 min [1, 5]: 10425
- GH AUC 300 min [1, 5]: 14448
- Plasma Rat Growth Hormone ([1]; 1.00 mg/kg BW SC, −120 min): 88.95 ng/mL
- Plasma Rat Growth Hormone ([1]; 3.0 mg/kg BW IV, 4 min): 38.7 ng/mL
- Plasma Rat Growth Hormone ([1]; 3.0 mg/kg BW IV, 10 min): 36.95 ng/mL
- Plasma Rat Growth Hormone ([1]; 3.0 mg/kg BW IV, 15 min): 83.65 ng/mL
- Plasma Rat Growth Hormone ([1]; 3.0 mg/kg BW IV, 45 min): 41.6 ng/mL
- Plasma Rat Growth Hormone ([1]; 3.0 mg/kg BW IV, 300 min): 56.7 ng/mL
- GH AUC 45 min [1, 6]: 2384
- GH AUC 300 min [1, 6]: 14299
- Plasma Rat Growth Hormone ([1]; 3.0 mg/kg BW IV, −120 min): 48.6 ng/mL
- Plasma Rat Growth Hormone ([1]; 3.00 mg/kg BW SC, 15 min): 453.0 ng/mL
- Plasma Rat Growth Hormone ([1]; 3.00 mg/kg BW SC, 30 min): 181.55 ng/mL
- Plasma Rat Growth Hormone ([1]; 3.00 mg/kg BW SC, 60 min): 59.4 ng/mL
- Plasma Rat Growth Hormone ([1]; 3.00 mg/kg BW SC, 120 min): 4.45 ng/mL
- Plasma Rat Growth Hormone ([1]; 3.00 mg/kg BW SC, 300 min): 47.9 ng/mL
- GH AUC 120 min [1, 7]: 15562
- GH AUC 300 min [1, 7]: 20273
- Plasma Rat Growth Hormone ([1]; 3.00 mg/kg BW SC, −120 min): 20.05 ng/mL
- GH secretion compared with natural hGHRH(1-44)NH2 (pulse amplitude and AUC) ([1]; rat): twice larger
- In vivo potency compared with the natural 44 amino acid GHRH ([1]; rat and dog): at least two times more potent in vivo
- Somatotroph desensitization ([1]; rat, highest single IV dose): induced transient somatotroph desensitization
- GH secretion into peripheral blood, dose dependence ([1]; rat, intravenous and subcutaneous): dose-dependent response
- Time of peak GH secretion ([1]; rat, intravenous injection): 4 to 10 min
- Time of peak GH secretion ([1]; rat, single subcutaneous injection): 10 to 15 min
- NOAEL at 672 h [2]: 3 mg/kg
- Subjects with abnormal findings on physical examination: Cardiovascular (%) ([3]; Baseline): (46.2%)
- Subjects with abnormal findings on physical examination: Central nervous system (%) ([3]; Baseline): (0.0%)
- Subjects with abnormal findings on physical examination: Ear (%) ([3]; Baseline): (15.4%)
- Subjects with abnormal findings on physical examination: Gastrointestinal (%) ([3]; Baseline): (30.8%)
- Subjects with abnormal findings on physical examination: Genitourinary (%) ([3]; Baseline): (23.1%)
- Subjects with abnormal findings on physical examination: Musculoskeletal (%) ([3]; Baseline): (53.8%)
- Subjects with abnormal findings on physical examination: Nose and throat (%) ([3]; Baseline): (38.5%)
- Subjects with abnormal findings on physical examination: Other (%) ([3]; Baseline): (23.1%)
- Subjects with abnormal findings on physical examination: Respiratory (%) ([3]; Baseline): (0.0%)
- Subjects with abnormal findings on physical examination: Skin (%) ([3]; Baseline): (69.2%)
- Subjects with abnormal findings on physical examination: Cardiovascular (%) ([3]; Day 28): (25.0%)
- Subjects with abnormal findings on physical examination: Central nervous system (%) ([3]; Day 28): (0.0%)
- Subjects with abnormal findings on physical examination: Ear (%) ([3]; Day 28): (16.7%)
- Subjects with abnormal findings on physical examination: Gastrointestinal (%) ([3]; Day 28): (41.7%)
- Subjects with abnormal findings on physical examination: Genitourinary (%) ([3]; Day 28): (16.7%)
- Subjects with abnormal findings on physical examination: Musculoskeletal (%) ([3]; Day 28): (50.0%)
- Subjects with abnormal findings on physical examination: Nose and throat (%) ([3]; Day 28): (41.7%)
- Subjects with abnormal findings on physical examination: Other (%) ([3]; Day 28): (41.7%)
- Subjects with abnormal findings on physical examination: Respiratory (%) ([3]; Day 28): (8.3%)
- Subjects with abnormal findings on physical examination: Skin (%) ([3]; Day 28): (75.0%)
